US8110596B2, “Triprenyl phenol compound, process for production of triprenyl phenol compound, and thrombolysis enhancer” (Tokyo University of Agriculture and Technology TLO Co., Ltd., priority 2006, dated 2012)

Assays:
[1] = molecular target: T1, plasminogen (Homo sapiens, UniProt P00747); assay: Measurement of activity of plasminogen fragment production (Example 5); assay type: biochemical; conditions: 50 μM, 100 μM and 200 μM; 60 minutes at 37° C., SDS polyacrylamide gel electrophoresis
Experimental: (§1) The fibrinolysis enhancing activity of SMTP-0 (50 μM, 100 μM and 200 μM) obtained in Example 2 was evaluated as follows, as the activity for promoting the plasminogen activation by urokinase catalysis.
(§2) A 30 mM solution of SMTP (DMSO solution) was diluted with TBS/T (50 mM Tris-HCl, 100 mM NaCl and 0.01% Tween80, pH 7.4) to prepare a 1.5 mM solution (in 5% DMSO·TBS/T). This solution was diluted with 5% DMSO in TBS/T to prepare SMTP solutions at the concentrations mentioned above.
(1) Measurement of Activity of Plasminogen Fragment Production
An SMTP solution (60 μl) was mixed with 240 μl of a reaction liquid at a 1.25-fold concentration (not containing VLK-pNA (Val-Leu-Lys-p-nitroanilide)), and the mixture was allowed to react for 60 minutes at 37° C. Then, 75 μl of 50% trichloroacetic acid (TCA) was added to terminate the reaction, and the mixture was left to stand in ice for 60 minutes. TCA-insoluble materials were precipitated by centrifugation, and the precipitate was washed two times with acetone. The obtained precipitate was dried, and then dissolved with 11 μl of added SDS sample buffer (0.125 M Tris-Cl, pH 6.8, 4% SDS, 20% glycerol and 0.02% bromophenol blue). 10 μl of the solution was used to perform SDS polyacrylamide gel electrophoresis (10% gel).

[2] = molecular target: T1, plasminogen; assay: Measurement of plasminogen activation by urokinase catalysis, VLK-pNA hydrolysis (Example 5); assay type: biochemical; conditions: 50 μM, 100 μM and 200 μM, 37° C., 60 minutes
Experimental: as §1, §2
(2) Measurement of Plasminogen Activation
10 μl of an SMTP solution (10 μl) was mixed with 40 μl of a reaction liquid at a 1.25-fold concentration (0.0625 μM of plasminogen, 62.5 U/ml of urokinase, and 0.125 mM of VLK-pNA) in a 96-well microplate, and measurement was made by immediately monitoring the absorption of the hydrolysis of VLK-pNA at 405 nm over time with a microplate reader. The measurement was performed at 37° C. for 60 minutes at an interval of 2 minutes.

T1 sequence (P00747 20-810 limits assumed, species assumed): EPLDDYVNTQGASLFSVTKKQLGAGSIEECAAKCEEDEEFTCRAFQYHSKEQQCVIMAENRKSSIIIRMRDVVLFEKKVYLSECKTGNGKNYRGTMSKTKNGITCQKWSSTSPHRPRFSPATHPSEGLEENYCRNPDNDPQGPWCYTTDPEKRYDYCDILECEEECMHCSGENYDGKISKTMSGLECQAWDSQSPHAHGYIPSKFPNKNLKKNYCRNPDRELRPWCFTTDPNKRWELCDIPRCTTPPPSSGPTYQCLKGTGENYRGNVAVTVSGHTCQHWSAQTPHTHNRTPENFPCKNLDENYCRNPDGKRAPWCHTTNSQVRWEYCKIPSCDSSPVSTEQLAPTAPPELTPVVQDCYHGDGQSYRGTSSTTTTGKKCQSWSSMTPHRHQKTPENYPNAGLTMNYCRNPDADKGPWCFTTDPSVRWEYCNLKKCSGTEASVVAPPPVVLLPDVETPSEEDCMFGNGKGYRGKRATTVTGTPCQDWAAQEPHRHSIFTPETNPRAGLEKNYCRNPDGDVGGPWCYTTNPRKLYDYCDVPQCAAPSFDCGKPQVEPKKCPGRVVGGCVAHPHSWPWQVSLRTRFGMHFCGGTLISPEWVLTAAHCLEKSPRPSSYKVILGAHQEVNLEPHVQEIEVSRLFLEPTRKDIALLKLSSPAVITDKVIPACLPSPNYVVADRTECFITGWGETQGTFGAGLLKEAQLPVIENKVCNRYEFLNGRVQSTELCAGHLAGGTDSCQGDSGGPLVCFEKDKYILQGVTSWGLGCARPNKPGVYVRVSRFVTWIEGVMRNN

With `CC(C)=CCC/C(C)=C/CC[C@]1(C)Oc2c(c(O)cc3c2CNC3=O)C[C@@H]1O` [SMTP-0] the “action on the generation of plasminogen fragments having the angiogenesis inhibitory activity” value [1] was “did not exhibit any action” and the “action of enhancing the plasminogen activation” value [2] was “did not indicate any action”.
